T1: GIT1 1–370 (Mus musculus, UniProt Q68FF6)
T1 construct: residues 1-370, E. coli BL21(DE3), N-terminal Trx-His6 tag removed by HRV-3C protease; for BLI biotin-labelled (BLI construct not restated)
T1 sequence (Q68FF6 1-370): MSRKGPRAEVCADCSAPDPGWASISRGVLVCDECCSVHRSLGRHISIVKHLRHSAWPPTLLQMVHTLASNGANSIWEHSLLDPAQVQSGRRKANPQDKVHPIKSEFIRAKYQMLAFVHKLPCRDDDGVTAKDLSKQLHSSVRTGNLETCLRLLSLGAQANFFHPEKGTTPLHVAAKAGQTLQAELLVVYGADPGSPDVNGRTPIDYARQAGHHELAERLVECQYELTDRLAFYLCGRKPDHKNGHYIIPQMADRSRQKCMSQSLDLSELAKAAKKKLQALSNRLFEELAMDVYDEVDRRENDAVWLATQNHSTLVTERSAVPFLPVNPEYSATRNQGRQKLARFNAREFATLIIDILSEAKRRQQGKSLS

T2: GIT1 1–370 (mouse) (mouse, UniProt Q68FF6 1-370)
T2 construct: GIT1, mouse, aa 1-370 (GenBank NM_001004144.1), cloned into pET32M3C; also called GIT1 protein; source: E. coli BL21 (DE3), purified (Ni-NTA, SEC, tag cleaved by HRV-3C, SEC); not shown: Trx, N-terminal, cleaved; His6, N-terminal, cleaved
T2 sequence (looked up): T1 sequence (Q68FF6 1-370)

B1: FITC-β-Pix fluorescent peptide (peptide)
peptide: ALEEDAQILKVIEAYCTSAKT
modifications: not fully specified (N-terminus)
notes: source: synthetic peptide (China peptide, Shanghai)

Ends that are not written are not given here. Where only a bound is given, the exact number is not on record here.

The first assay deals with T1, GIT1 1–370. Nature of the assay: fluorescence polarization competition with FITC-beta-Pix peptide. The class given is binding.
Details: not given
A general note: Polarisation of emitted light reports the rotation of a fluorescent probe.
What is called Ki is the equilibrium dissociation constant of an inhibitor or competing ligand from its target. Molecule `CCOC(=O)[C@@H]1[C@@H]2C[C@@H](/C(=C\c3ccoc3)C2=O)[C@@]12C(=O)N(C)c1ccccc12` [14-5-18] returned a Ki of 1800 nM.

Turning to `CCOC(=O)C1=C[C@H](c2cccc(C)c2)[C@H]2CC[C@@H](CC(=O)C3CCCCC3)O[C@H]2N1S(=O)(=O)c1ccc(C)cc1` [15-4-26], the Ki was found to be 1500 nM.

Another assay concerns the target T2, GIT1 1–370 (mouse). The assay can be described thus: fluorescence polarisation; direct titration: 100 nM fluorescent peptide with serial dilutions of GIT1 (0.01 to 10 µM), 80 µL; 100 mM NaCl, 50 mM Tris pH 7.5, room temperature. The settings on record: both partners purified.
As for B1, the binding result is “binds”.

A further assay deals with T1, GIT1 1–370. Nature of the assay: biochemical. Also on record: Biolayer interferometry, kinetic binding of 14-5-18 to GIT1. The settings on record: read-out: ka. The text has this:
We next investigated whether compounds 14-5-18 and 15-4-26 specifically perturbed the GIT1/β-Pix interaction in living cells. Firstly, we performed Cellular Thermal Shift Assay (CETSA) to preliminarily explore the target engagement of the compounds with GIT1 (Supplementary Fig. 4). CETSA relies on the fact that proteins are generally vulnerable to thermal conditions, while physical binding with other molecules could improve their stability. […] Therefore, further evaluations were only performed with 14-5-18, and 15-4-26 was suspended for its poor potential for drug development. […] Similarly, under thermal conditions from 30 to 90 °C, 14-5-18 (50 µM) also considerably stabilized GIT1, especially at high temperatures (Supplementary Fig. 4c). To further confirm whether 14-5-18 directly bound to GIT1, we used biolayer interferometry (BLI) assay to measure their interaction. […] Concentrations ranging from 25 to 400 μM were shown with the real-time response for each step of the kinetic assay. b Co-IP assay to indicate the interaction of GIT1 and β-Pix and the inhibitory effects of 14-5-18. […] GFP-GIT1 (green) and Myc-β-Pix were expressed followed by treatment with a fluorescent secondary antibody (red) in the MGC803 cell line to construct the fluorescence system. […] Plot fluorescence intensities of the area marked by the white lines in the left panels are shown in the right graphs. […]
`CCOC(=O)[C@@H]1[C@@H]2C[C@@H](/C(=C\c3ccoc3)C2=O)[C@@]12C(=O)N(C)c1ccccc12` [14-5-18, ethyl (1S,2R,3R,4S,E)-6-(furan-3-ylmethylene)-1'-methyl-2',5-dioxospiro [bicyclo[2.2.1]heptane-2,3'-indoline]-3-carboxylate]: the kon was found to be 200 M⁻¹ s⁻¹.

The same assay, now with this note: read-out: kdis.
For the molecule `CCOC(=O)[C@@H]1[C@@H]2C[C@@H](/C(=C\c3ccoc3)C2=O)[C@@]12C(=O)N(C)c1ccccc12` [14-5-18, ethyl (1S,2R,3R,4S,E)-6-(furan-3-ylmethylene)-1'-methyl-2',5-dioxospiro [bicyclo[2.2.1]heptane-2,3'-indoline]-3-carboxylate], the koff is 0.00154 s⁻¹.

The target in the next assay is T1, GIT1 1–370. The assay can be described thus: biochemical. Also on record: fluorescence polarization competition, displacement of FITC-beta-Pix peptide from GIT1. The settings on record: read-out: IC50 in FP assay. The procedure: GIT1 protein purification: Purification of GIT1 1–370 was performed following a published protocol. Briefly, the coding sequence of mouse GIT1 aa. 1–370 (GenBank: NM_001004144.1) was cloned into a pET32M3C (with an N-terminal Trx-His6 tag) vector. The recombinant protein was expressed in Escherichia coli BL21 (DE3) cells at 16 °C for 18 h induced by the isopropyl-β-D-thiogalactoside (IPTG) at a final concentration of 0.2 mM. The N-terminal Trx-His6-tagged GIT1 1–370 was purified by Ni^2+-NTA agarose affinity chromatography, followed by a Superdex-200 26/60 size-exclusion chromatography (GE Healthcare, Cytiva). To remove the Trx-His6 tag, GIT1 protein was cleaved by HRV-3C protease at 4 °C overnight and then purified by another step of SEC purification. The β-Pix-positive peptide (sequence: […]) and fluorescent peptide (sequence: FITC-(Acp)-[…]) were synthesized by China peptide (Shanghai, China). […] The fluorescence intensities, parallel and perpendicular to the plane of excitation, were determined in Corning black 96-well NBS assay plates at room temperature. Fluorescence polarization was determined using a Multi-Mode Detection Platform (SpectraMax Paradigm, Molecular Devices, USA) with 485 nm excitation and 535 nm emission filters, the values were expressed in millipolarization units (mP). The binding affinity of the fluorescent peptide toward GIT1 was first determined via titration. […]
The IC50 is the concentration at which inhibition is half-maximal. On to `O=C(NCc1ccco1)C1CN(C(=O)c2cccs2)CC12CCCCC2` (stereo not drawn) [S030-1757], for which the IC50 was more than 1 mM.

The next assay addresses T1, GIT1 1–370. Nature of the assay: biochemical. On the set-up: Fluorescence polarization competition of FITC-beta-Pix peptide binding to GIT1 1-370. As to conditions: read-out: IC50 in FP assay. This is another data set of the same source. The procedure: GIT1 protein purification: Purification of GIT1 1–370 was performed following a published protocol. Briefly, the coding sequence of mouse GIT1 aa. 1–370 (GenBank: NM_001004144.1) was cloned into a pET32M3C (with an N-terminal Trx-His6 tag) vector. The recombinant protein was expressed in Escherichia coli BL21 (DE3) cells at 16 °C for 18 h induced by the isopropyl-β-D-thiogalactoside (IPTG) at a final concentration of 0.2 mM. The N-terminal Trx-His6-tagged GIT1 1–370 was purified by Ni^2+-NTA agarose affinity chromatography, followed by a Superdex-200 26/60 size-exclusion chromatography (GE Healthcare, Cytiva). To remove the Trx-His6 tag, GIT1 protein was cleaved by HRV-3C protease at 4 °C overnight and then purified by another step of SEC purification. The β-Pix-positive peptide (sequence: […]) and fluorescent peptide (sequence: FITC-(Acp)-[…]) were synthesized by China peptide (Shanghai, China). FP assay was used to monitor interactions between GIT1 and the compounds. For each assay, fresh protein stocks of GIT1 were thawed. Assay buffer contained 100 mM NaCl, 50 mM Tris pH 7.5. All the experiments were prepared in duplicates. The fluorescence intensities, parallel and perpendicular to the plane of excitation, were determined in Corning black 96-well NBS assay plates at room temperature. Fluorescence polarization was determined using a Multi-Mode Detection Platform (SpectraMax Paradigm, Molecular Devices, USA) with 485 nm excitation and 535 nm emission filters, the values were expressed in millipolarization units (mP). The binding affinity of the fluorescent peptide toward GIT1 was first determined via titration. For this purpose, 100 nM fluorescent peptide was contacted with serial dilutions of GIT1 (concentration ranging from 0.01 to 10 µM) in a final volume of 80 µL. KD value was stimulated from FP values and protein concentrations using GraphPad Prism 8.0 software. Competition binding assay was performed using 100 nM fluorescent peptide and optimal protein concentration (2.0 µM) for the measurement was calculated based on determined KD. Tested compounds were prepared as serial dilutions (0.1–500 µM) in DMSO. […] Additionally, the commercial compound library ChemDiv was screened as a control. The 20 compounds with the best docking scores were selected, purchased, and further subjected to FP binding assay to test their inhibitory abilities. […] The screening was performed at both virtual and entity levels. In the virtual screening, the docking model of the GIT1/β-Pix complex was constructed, and the binding pocket was generated based on the complex structure of GIT2/β-Pix that we solved recently (PDB ID: 6JMT)[42] (Fig. 2c). The virtual library (SMBL-V) was subjected to the Sybyl-X 2.0 program to perform high-throughput docking screening with GIT1 at the specific binding pockets. […] The Autodock and Sybyl-X 2.0 programs were used in combination for the second round of screening. Twenty top-ranked molecules were selected, and 9 compounds were synthesized (one structure for each scaffold) to perform further evaluation (N = 9) (see Source Data File for detailed structures and scores). For the entity library (SMBL-E) screening, a fluorescence polarization (FP)-binding assay[43],[44] was established to evaluate the inhibitory abilities of the compounds on the GIT1/β-Pix interaction (Fig. 2d). Several representative compounds (N = 100) with different scaffolds were chosen for screening. Together with the 9 compounds selected from virtual screening, a total of 109 compounds were subjected to the FP binding assay to perform the final evaluation. Compound 15-4-26 from the virtual library and compound 14-5-18 from the entity library with the best binding affinities (Ki values) were selected as candidates (Fig. 2e and Supplementary Fig. 3).
In the case of `Cc1cc(-c2ccc3ccccc3n2)nc2ccc3ccccc3c12` [0443-0206], the IC50 is more than 1 mM.

For `CC(NS(=O)(=O)c1ccc2c(c1)C(=O)c1cc(S(=O)(=O)NC(C)C(=O)O)ccc1-2)C(=O)O` (stereo not drawn) [2578-0155], the IC50 was more than 1 mM.

Take `C1C2CC3CC1CC(C2)C3Nc1nc2nonc2nc1NC1C2CC3CC(C2)CC1C3` (stereo not drawn) [3277-0083]: the IC50 is more than 0.1 mM.

For the molecule `Cn1c(=O)c2c(nc(Oc3cccc(C4Nc5ccc6ccccc6c5C5=C4C(=O)CC(C)(C)C5)c3)n2C)n(C)c1=O` (stereo not drawn) [3277-0261], the IC50 was more than 0.1 mM.

On to `CC1=CC(C)(C)Nc2ccc(OC(=O)C(Cc3ccccc3)N3C(=O)C4CCCCC4C3=O)cc21` (stereo not drawn) [4934-0001], for which the half-maximal inhibitory concentration (IC50) is more than 1 mM.

`Cn1c(=O)n(C)c2cc(CNC34CC5CC(C)(CC(C)(C5)C3)C4)ccc21` [D272-0692]: the IC50 is more than 1 mM.

As for `Cc1ccc2cc3c(nc2c1)N(S(=O)(=O)c1ccc2c(c1)OCCO2)CC3` [D470-0645], the IC50 was more than 0.1 mM.

`CN1C(=O)C(c2c(-c3ccc4ccccc4c3)[nH]c3[nH]c(=O)[nH]c(=O)c23)c2ccccc21` (stereo not drawn) [D517-1064]: the IC50 is more than 1 mM.

Take `CSc1cccc(NC(=O)Nc2ccc(Nc3cc(N(C)C)nc(C)n3)cc2)c1` [D638-0006F]: the IC50 was more than 1 mM.

For `O=S(=O)(c1ccc2nc(Nc3ccc(Br)cc3F)ccc2c1)N1CCCCC1` [F052-0078], the IC50 is more than 0.1 mM.

For `O=C(Nc1cccc(OCc2cc(=O)n3cc(Cl)ccc3n2)c1)Nc1ccc2c(c1)OCCO2` [G756-2320], the concentration for half-maximal inhibition (IC50) is more than 0.1 mM.

With `O=C1Nc2ccccc2Oc2cc(Oc3ccc4c(c3)OCO4)c(S(=O)(=O)N3CCCC3)cc21` [J030-0445], the IC50 was more than 1 mM.

Regarding `CCS(=O)(=O)c1ccc2c(c1)N(Cc1nc(-c3ccc4c(c3)OCO4)no1)C(=O)CO2` [L111-0329], the IC50 was more than 1 mM.

`Cc1cc(C)cc(S(=O)(=O)N2CCC3(CC2)NCCN=C3NCc2ccc(C(F)(F)F)cc2)c1` [L676-2486]: the IC50 is more than 0.1 mM.

On to `CC(CC(=O)Nc1ccc2c(c1)OCCO2)S(=O)(=O)c1ccc2c(c1)NC(=O)CCS2` (stereo not drawn) [L705-0544], for which the IC50 is more than 1 mM.

(Values after PMC9684509, “Construction of a synthetic methodology-based library and its application in identifying a GIT/PIX protein–protein interaction inhibitor” (Nature Communications, 2022).)
